The values that follow come from patent US20260125400A1, “TYK2 DEGRADERS AND USES THEREOF” (Kymera Therapeutics, Inc., priority 2023, published 2026).

What is called DC50 is the concentration at which degradation of the target reaches its halfway point.

The structures appear in SMILES notation.

The test deals with T1, TYK2 (Homo sapiens, UniProt P29597).
T1 construct: Degradation of TYK2 in cells was quantitatively measured using Meso Scale Discovery (MSD) technology; endogenous in cells; host or cells: OCI-LY10
The test can be described thus: TYK2 MSD degradation in OCI-LY10 cells. The class given is cell-based. The following applies: TYK2 degradation in OCI-LY10 cells, 4 to 24 hours incubation; for DC50: read-out: TYK2 MSD OCI-LY10 Rel-DC50. Summed up: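 Cellular TYK2 levels were measured by Meso Scale Discovery sandwich detection in RIPA lysates of OCI-LY10 cells exposed 4 to 24 hours at 37° C to nine 1:3 compound doses starting at 1 to 10 μM final; dose-response fitted by four-parameter regression.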

T1 sequence (P29597 whole entry): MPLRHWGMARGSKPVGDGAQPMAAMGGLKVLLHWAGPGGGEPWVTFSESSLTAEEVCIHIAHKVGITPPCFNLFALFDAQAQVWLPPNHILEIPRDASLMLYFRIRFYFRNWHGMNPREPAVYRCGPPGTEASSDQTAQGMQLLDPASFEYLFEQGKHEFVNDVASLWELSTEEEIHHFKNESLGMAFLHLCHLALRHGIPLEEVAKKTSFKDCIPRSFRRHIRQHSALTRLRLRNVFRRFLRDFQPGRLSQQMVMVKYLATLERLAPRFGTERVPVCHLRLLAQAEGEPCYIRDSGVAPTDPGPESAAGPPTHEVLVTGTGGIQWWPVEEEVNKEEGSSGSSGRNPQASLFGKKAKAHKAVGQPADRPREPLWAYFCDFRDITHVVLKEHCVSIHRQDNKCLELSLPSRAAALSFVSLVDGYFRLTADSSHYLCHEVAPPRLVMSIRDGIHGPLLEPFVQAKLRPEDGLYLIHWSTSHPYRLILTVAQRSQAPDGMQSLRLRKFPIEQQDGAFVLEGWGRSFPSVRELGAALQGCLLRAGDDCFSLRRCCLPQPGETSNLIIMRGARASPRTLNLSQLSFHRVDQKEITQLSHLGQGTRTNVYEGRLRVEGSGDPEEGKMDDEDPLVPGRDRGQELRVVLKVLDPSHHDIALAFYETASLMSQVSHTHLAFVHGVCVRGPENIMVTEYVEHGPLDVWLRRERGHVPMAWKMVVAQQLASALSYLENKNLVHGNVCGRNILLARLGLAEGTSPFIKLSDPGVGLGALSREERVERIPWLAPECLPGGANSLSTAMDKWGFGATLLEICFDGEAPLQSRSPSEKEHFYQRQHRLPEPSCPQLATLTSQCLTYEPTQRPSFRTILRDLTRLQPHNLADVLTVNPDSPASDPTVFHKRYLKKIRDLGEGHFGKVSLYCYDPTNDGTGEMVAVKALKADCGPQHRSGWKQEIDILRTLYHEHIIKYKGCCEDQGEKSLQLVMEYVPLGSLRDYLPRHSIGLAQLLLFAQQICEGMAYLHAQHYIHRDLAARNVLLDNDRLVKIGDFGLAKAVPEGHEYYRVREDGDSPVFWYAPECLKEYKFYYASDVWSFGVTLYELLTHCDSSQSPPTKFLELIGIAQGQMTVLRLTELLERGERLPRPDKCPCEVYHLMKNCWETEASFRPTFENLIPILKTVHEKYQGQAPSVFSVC

As to `CNc1cc(N2CCc3c(-c4ccc(CN5CCC6(CCN(Cc7ccc(Cl)c(N8CCC(=O)NC8=O)c7)CC6)C(F)(F)C5)cn4)cccc32)nn2c(C(=O)N[C@@H]3C[C@@H]3F)cnc12` [I-289], the “TYK2 MSD OCI-LY10 Dmax %” value is listed as “D (D (<50%))” and the DC50 is over 100 nM.

As to `CNc1cc(N2CCc3c(CN4CCC(N5CCC(Oc6ccc(Cl)c(N7CCC(=O)NC7=O)c6)CC5)C(F)(F)C4)cccc32)nn2c(C(=O)N[C@@H]3C[C@@H]3F)cnc12` (stereo partly shown) [I-291], the “TYK2 MSD OCI-LY10 Dmax %” value is listed as “D (D (<50%))” and the DC50 is over 100 nM.

Consider `CNc1cc(N2CCc3c(-c4ccc(CN5CC6(C5)CN(C(=O)c5ccc(Cl)c(N7CCC(=O)NC7=O)c5)C6)cn4)cccc32)nn2c(C(=O)NC3CC3F)cnc12` (stereo not shown) [I-295], for which the “TYK2 MSD OCI-LY10 Dmax %” value is “D (D (<50%))” and the DC50 was under 10 nM.

Consider `CNc1cc(N2CCc3c(-c4ccc(CN5CC6(CCN(C(=O)c7ccc(Cl)c(N8CCC(=O)NC8=O)c7)C6)C5)cn4)cccc32)nn2c(C(=O)NC3CC3F)cnc12` (stereo not shown) [I-296], for which the “TYK2 MSD OCI-LY10 Dmax %” value was “C (C (75 to 50%))” and the 50% degradation concentration (DC50) was under 1 nM.

Consider `CNc1cc(N2CCc3c(-c4ccc(CN5CCC6(C5)CN(C(=O)c5ccc(Cl)c(N7CCC(=O)NC7=O)c5)C6)cn4)cccc32)nn2c(C(=O)NC3CC3F)cnc12` (stereo not shown) [I-297], for which the “TYK2 MSD OCI-LY10 Dmax %” value is “C (C (75 to 50%))” and the DC50 is under 10 nM.

On to `CNc1cc(N2CCc3c(-c4ccc(CN5CCC6(CCN(C(=O)c7ccc(Cl)c(N8CCC(=O)NC8=O)c7)C6)C5)cn4)cccc32)nn2c(C(=O)NC3CC3F)cnc12` (stereo not shown) [I-302], for which the “TYK2 MSD OCI-LY10 Dmax %” value is “C (C (75 to 50%))” and the 50% degradation concentration (DC50) is under 1 nM.

Regarding `CNc1cc(N2CCc3c(-c4ccc(CN5CC6(CCN(C(=O)c7cccc(N8CCC(=O)NC8=O)c7C)CC6)C5)cn4)cccc32)nn2c(C(=O)NC3CC3F)cnc12` (stereo not shown) [I-309], the “TYK2 MSD OCI-LY10 Dmax %” value is “D (D (<50%))” and the DC50 is over 100 nM.

On to `CNc1cc(N2CCc3c(-c4ccc(CN5CCN(CC#Cc6cccc(N7CCC(=O)NC7=O)c6C)CC5)cn4)cccc32)nn2c(C(=O)NC3CC3F)cnc12` (stereo not shown) [I-311], for which the “TYK2 MSD OCI-LY10 Dmax %” value is on record as “C (C (75 to 50%))” and the DC50 was over 100 nM.

On to `CNc1cc(N2CCc3c(-c4ccc(CN5CCC6(CCC(COc7ccc(N8CCC(=O)NC8=O)c(Cl)c7)CC6)CC5)cn4)cccc32)nn2c(C(=O)N[C@@H]3C[C@@H]3F)cnc12` [I-339], for which the “TYK2 MSD OCI-LY10 Dmax %” value is listed as “D (D (<50%))” and the DC50 is under 10 nM.

`CNc1cc(N2CCc3c(CN4CCC(N5CCC(N6CCN(c7ccc8c(c7)n(C)c(=O)n8C7CCC(=O)NC7=O)CC6)CC5)C(F)(F)C4)cccc32)nn2c(C(=O)N[C@@H]3C[C@@H]3F)cnc12` (stereo partly shown) [I-347]: the “TYK2 MSD OCI-LY10 Dmax %” value was “B (B (90 to >75%))” and the half-maximal degradation concentration (DC50) is under 1 nM.

For `CNc1cc(N2CCc3c(-c4ccc(CN5CC6(CCN(C(=O)c7cnc(C)c(N8CCC(=O)NC8=O)c7)CC6)C5)cn4)cccc32)nn2c(C(=O)N[C@@H]3C[C@@H]3F)cnc12` [I-351], the “TYK2 MSD OCI-LY10 Dmax %” value is “B (B (90 to >75%))” and the 50% degradation concentration (DC50) is under 1 nM.

On to `CNc1cc(N2CCc3c(-c4ccc(CN5CC6(CCN(C(=O)c7cnc(OC)c(N8CCC(=O)NC8=O)c7)CC6)C5)cn4)cccc32)nn2c(C(=O)N[C@@H]3C[C@@H]3F)cnc12` [I-352], for which the “TYK2 MSD OCI-LY10 Dmax %” value is “B (B (90 to >75%))” and the DC50 was under 1 nM.

As to `CNc1cc(N2CCc3c(-c4ccc(CN5CC6(CCN(C(=O)c7cncc(N8CCC(=O)NC8=O)c7)CC6)C5)cn4)cccc32)nn2c(C(=O)N[C@@H]3C[C@@H]3F)cnc12` [I-353], the “TYK2 MSD OCI-LY10 Dmax %” value is given as “D (D (<50%))” and the DC50 was over 100 nM.

`CNc1cc(N2CCc3c(-c4ccc(CN5CC6(CCN(C(=O)c7ccc(C)c(N8CCC(=O)NC8=O)c7)CC6(F)F)C5)cn4)cc(F)cc32)nn2c(C(=O)NC3CC3F)cnc12` (stereo not shown) [I-357]: the “TYK2 MSD OCI-LY10 Dmax %” value is on record as “A (A (>90%))” and the DC50 is under 1 nM.

As to `CNc1cc(N2CCc3c(-c4ccc(CC5CN(C6CCN(C7CCN(c8ccc9c(c8)n(C)c(=O)n9C8CCC(=O)NC8=O)CC7)CC6(F)F)C5)cn4)cccc32)nn2c(C(=O)N[C@@H]3C[C@@H]3F)cnc12` (stereo partly shown) [I-359], the “TYK2 MSD OCI-LY10 Dmax %” value is recorded as “B (B (90 to >75%))” and the DC50 is under 1 nM.

As to `CNc1cc(N2CCc3c(-c4ccc(CN5CCC(N6CCC(C7CCN(c8ccc9c(c8)n(C)c(=O)n9C8CCC(=O)NC8=O)CC7)CC6)C(F)(F)C5)cn4)cccc32)nn2c(C(=O)N[C@@H]3C[C@@H]3F)cnc12` (stereo partly shown) [I-360], the “TYK2 MSD OCI-LY10 Dmax %” value is listed as “B (B (90 to >75%))” and the DC50 is under 10 nM.

On to `CNc1cc(N2CCc3c(CN4CCC(N5CCC6(CCN(C(=O)c7ccc(Cl)c(N8CCC(=O)NC8=O)c7)CC6)CC5)C(F)(F)C4)cccc32)nn2c(C(=O)N[C@@H]3C[C@@H]3F)cnc12` (stereo partly shown) [I-361], for which the “TYK2 MSD OCI-LY10 Dmax %” value is “B (B (90 to >75%))” and the 50% degradation concentration (DC50) was under 1 nM.

For the molecule `CNc1cc(N2CCc3c(-c4ccc(OC5CCC6(CC5)CCN(Cc5ccc(Cl)c(N7CCC(=O)NC7=O)c5)CC6)cn4)cccc32)nn2c(C(=O)N[C@@H]3C[C@@H]3F)cnc12` [I-362], the “TYK2 MSD OCI-LY10 Dmax %” value was “D (D (<50%))” and the 50% degradation concentration (DC50) is over 100 nM.

For `CNc1cc(N2CCc3c(-c4ccc(CN5CCC6(CCN(Cc7ccc(Cl)c(N8CCC(=O)NC8=O)c7)CC6)C(F)(F)C5)cn4)cccc32)nn2c(C(=O)NC3CC3)cnc12` [I-363], the “TYK2 MSD OCI-LY10 Dmax %” value is “D (D (<50%))” and the half-maximal degradation concentration (DC50) is over 100 nM.

Consider `CNc1cc(N2CCc3c(-c4ccc(CN5CC6(CCN(Cc7ccc(Cl)c(C8CCC(=O)NC8=O)c7)CC6(F)F)C5)cn4)cccc32)nn2c(C(=O)N[C@@H]3C[C@@H]3F)cnc12` (stereo partly shown) [I-365], for which the “TYK2 MSD OCI-LY10 Dmax %” value is given as “C (C (75 to 50%))” and the half-maximal degradation concentration (DC50) is under 10 nM.

`CNc1cc(N2CCc3c(-c4ccc(CN5CC6(CCN(Cc7ccc(C)c(N8CCC(=O)NC8=O)c7)CC6(F)F)C5)cn4)cccc32)nn2c(C(=O)N[C@@H]3C[C@@H]3F)cnc12` [I-366]: the “TYK2 MSD OCI-LY10 Dmax %” value is on record as “D (D (<50%))” and the half-maximal degradation concentration (DC50) was under 10 nM.

In the case of `CNc1cc(N2CCc3c(-c4ccc(CN5CC6(CCN(Cc7ccc(OC)c(N8CCC(=O)NC8=O)c7)CC6(F)F)C5)cn4)cccc32)nn2c(C(=O)N[C@@H]3C[C@@H]3F)cnc12` [I-367], the “TYK2 MSD OCI-LY10 Dmax %” value is reported as “C (C (75 to 50%))” and the DC50 is under 10 nM.

For `CNc1cc(N2CCc3c(CN4CCC(N5CCC(CC#Cc6ccc7c(c6)n(C)c(=O)n7C6CCC(=O)NC6=O)CC5)C(F)(F)C4)cccc32)nn2c(C(=O)N[C@@H]3C[C@@H]3F)cnc12` (stereo partly shown) [I-368], the “TYK2 MSD OCI-LY10 Dmax %” value is on record as “D (D (<50%))” and the DC50 was over 100 nM.

In the case of `CNc1cc(N2CCc3c(-c4ccc(CN5CC6(CCN(Cc7ccc(Cl)c(N8CCC(=O)NC8=O)c7)CC6(F)F)C5)cn4)cccc32)nn2c(C(=O)N[C@@H]3C[C@@H]3F)cnc12` [I-369], the “TYK2 MSD OCI-LY10 Dmax %” value was “D (D (<50%))” and the DC50 is over 100 nM.

In the case of `CNc1cc(N2CCc3c(C#CCN4CCC5(CN(C(=O)c6ccc(Cl)c(N7CCC(=O)NC7=O)c6)C5)C(F)(F)C4)cccc32)nn2c(C(=O)N[C@@H]3C[C@@H]3F)cnc12` [I-370], the “TYK2 MSD OCI-LY10 Dmax %” value is “D (D (<50%))” and the DC50 was over 100 nM.

For `CNc1cc(N2CCc3c(-c4ccc(CN5CCC(N6CCC7(CCN(c8ccc9c(c8)n(C)c(=O)n9C8CCC(=O)NC8=O)CC7)CC6)C(F)(F)C5)cn4)cccc32)nn2c(C(=O)N[C@@H]3C[C@@H]3F)cnc12` (stereo partly shown) [I-371], the “TYK2 MSD OCI-LY10 Dmax %” value was “C (C (75 to 50%))” and the DC50 is under 10 nM.
